Laboratory results as given in article PMC11611271, “Rapid prediction of key residues for foldability by machine learning model enables the design of highly functional libraries with hyperstable constrained peptide scaffolds” (PLOS Computational Biology, 2024).
Where a SMILES comes first, the peptide text is derived from it. Bridges are numbered along the chain shown (N, C = ends).

Columns and labels:
RSP02 = test: phage spot ELISA on RSP02; format: binding; conditions: for S/N: phage spot ELISA signal/noise; for S/N / ELISA: S3 Table sheet RSP02; for ELISA: phage spot ELISA signal
Excerpt: (§1) To determine the performance of the libraries for ligand discovery we chose a panel of eight protein targets, which have no structural homology and a wide mass range (Fig 7C). We screened these eight targets with solution panning strategy and two additional plate panning for CD8α/β and CD28, thus ten panning campaigns in total. We consider clones showing spot phage ELISA signal > 0.3 and signal/noise ratio > 2 as positive hits. At least one binding hit was discovered for nine out of the ten panning campaigns, surpassing the success rate of the best DCP scaffolds reported previously. We also obtained the NGS data for these screening and the ranking of clones for their enrichment along the rounds of screening was analyzed and considered the top-ranking clones as potential hits. Based on their sequence diversity we selected 16 potential hits spanning five protein targets for peptide synthesis in their linear form. Seven of these are hits with positive phage ELISA signal and nine were selected based on NGS ranking without spot ELISA available. Subsequently, we conducted in vitro folding experiments on these peptides in various buffers. We observed a strong propensity for spontaneous folding regardless of the buffer condition. All HCP hits tested successfully folded into three-disulfide-containing product within two days in a universal buffer system (PBS, pH 7.4, 50% DMSO) without the need for a redox pair, as shown in Fig 8A. The binding of these folded peptides to their respective target proteins was confirmed using SPR (Table 4 and S1 Data) and binding kinetics are exemplified by the high-affinity peptide 5ji4-CRD7-2 (see Fig 8B). Among seven selected ELISA-positive hits, all of them were successfully synthesized and in vitro folded with three disulfide bonds and five were proven to be validated binders by SPR (Table 4). Nine peptides selected from the NGS ranking were synthesized and folded with the expected number of disulfide bonds and five of them bound to their target with affinities in the μM range as determined by SPR (Table 4). In general, binding affinities for these SPR-validated initial hits are weak, with Kd values in the micromolar range and fast on- and off-rates. There are two exceptions with binding affinities in the nanomolar range.
(§2) The 5ji4 libraries were constructed following the Kunkel mutagenesis method and the solution panning protocol was followed as previously described. After four to five rounds of binding selection, while eluted pool was subjected to NGS analysis, individual phage clones were also picked and analyzed with phage spot ELISA. Positive clones were subjected to SANGER sequencing.

CD8α = test: phage spot ELISA on CD8α; format: binding; conditions: S3 Table sheet CD8α; for S/N: phage spot ELISA signal/noise; for ELISA: phage spot ELISA signal
Excerpt: as §1, §2

Compound	S/N (CD8α)	ELISA (CD8α)	S/N (RSP02)	ELISA (RSP02)	other results
CSCC[C@@H]1NC(=O)[C@H](Cc2c[nH]c3ccccc23)NC(=O)[C@@H]2CSSC[C@H](NC(=O)[C@H](Cc3ccccc3)NC(=O)[C@H](Cc3c[nH]cn3)NC(=O)[C@H](CCC(=O)O)NC(=O)[C@H](CC(N)=O)NC(=O)[C@H](Cc3ccc(O)cc3)NC1=O)C(=O)N[C@@H](CCCNC(=N)N)C(=O)N[C@@H](C(C)C)C(=O)N[C@@H](Cc1c[nH]cn1)C(=O)N[C@H](C(=O)NCC(N)=O)CSSC[C@H](NC(=O)[C@@H]1CCCN1C(C)=O)C(=O)N[C@@H](CCC(=O)O)C(=O)N[C@H]1CSSC[C@H](NC(=O)[C@H](CCC(=O)O)NC(=O)[C@H](CCC(=O)O)NC(=O)[C@H](CO)NC(=O)[C@H](CO)NC(=O)[C@H](CO)NC(=O)[C@H](C(C)C)NC(=O)[C@H]([C@@H](C)O)NC(=O)[C@H](Cc3ccc(O)cc3)NC(=O)[C@H]([C@@H](C)O)NC(=O)[C@H](CCC(=O)O)NC(=O)CNC(=O)[C@H](CC(N)=O)NC(=O)[C@H](C(C)C)NC(=O)[C@H](CC(=O)O)NC1=O)C(=O)N[C@@H](CCC(=O)O)C(=O)N1CCC[C@H]1C(=O)N[C@@H](CC(C)C)C(=O)N2 [5ji4-RSP-1] (Ac-PCECDVNGETYTVSSSEECEPLCWMYNEHFCRVHCG-NH2; disulfide 2-35, 4-19, 23-31; N-terminus and C-terminus assumed)					ELISA signal (RSP02; phage spot ELISA of the clone, positive hit: signal > 0.3 and signal/noise > 2): 0.58; ELISA s/n (RSP02; phage spot ELISA signal/noise ratio): 5.22
PAMLLQRNRPYGLLPEECERLCRKLGVTTACHCG [CD8α clone 1, phage clone, 5JI4 library, CD8α panning]	39.9	4.75			
PCACDVNGETYTVSSSEECERLCTWWYFVVCRVHCG [CD8α clone 5, phage clone, 5JI4 library, CD8α panning]	3.0	0.282			
PCDCDVNGETYTVSSSEECEPLCLNWLSSLCRVHCG [CD8α clone 3, phage clone, 5JI4 library, CD8α panning]	37.9	3.371			
PCECDLNGETYTVSSSEECERLCSWYIQYVCRVHCG [CD8α clone 6, phage clone, 5JI4 library, CD8α panning]	2.2	0.194			
PCECDVNGETYTVSSSEECEPLCWMYNEHFCRVHCG [RSP02 clone 6, phage clone, 5JI4 library, RSP02 panning]			8.917	0.856	
PCECDVNGETYTVSSSEECEQDSDCLAGWVCRVHCG [CD8α clone 7, phage clone, 5JI4 library, CD8α panning]	34.2	3.252			
PCECDVNGETYTVSSSEECERCQDWLFYLCRVHCG [CD8α clone 4, phage clone, 5JI4 library, CD8α panning]	35.6	3.525			
PCECDVNGETYTVSSSEECGRLCQYWFIMLCRVHCG [CD8α clone 2, phage clone, 5JI4 library, CD8α panning]	38.5	3.391			
PCECEQPYRDDPDKSSEECERLCRKLGVTNCRVHCG [RSP02 clone 4, phage clone, 5JI4 library, RSP02 panning]			1.788	0.177	
PCECIVRWTTKQLESSEECERLCRKLGVTNCRVHCG [RSP02 clone 2, phage clone, 5JI4 library, RSP02 panning]			1.515	0.2	
PCECQPMSNWFDMISSEECERLCRKLGVTNCRVHCG [RSP02 clone 3, phage clone, 5JI4 library, RSP02 panning]			0.8496	0.192	
PCECTYKDDWQKGASSEECERLCRKLGVTNCRVHCG [RSP02 clone 1, phage clone, 5JI4 library, RSP02 panning]			1.427	0.204	
PCECVRLSTGRYVKSSEECERLCRKLGVTNCRVHCG [RSP02 clone 5, phage clone, 5JI4 library, RSP02 panning]			1.706	0.216	
